“Also recorded” adds a separate entry of the source. Where two headings read alike, the source gives them in different places.
Assays:
B16 melanoma = test: Survival time of mice bearing the B16 melanoma; assay type: in vivo, mouse (C57B1 mice); conditions: for Max. % T/C B16 Melanoma: Table V; for Max. % T/C: Table IV, B16, at optimum effective daily dose; for Av. Change in wt., %: at optimum effective daily dose, B16 mice
Experimental: This tumor was propagated in C57B1mice. Transplantation was carried out by removing tumors from donor mice bearing 14-day subcutaneous tumor growths. The tissue was fragmented to make a well-dispersed cellular suspension and diluted with Fischer's medium without serum so that one gram of tissue was suspended in 5 ml of solution. A portion (0.2 ml) of the resulting cell suspension was injected intraperitoneally into each recipient animal. All compounds were administered over a wide range of dosage levels by intraperitoneal injection, beginning 24 hours after tumor implantation, once daily for 6 consecutive days. The test compounds were injected as fine suspensions following homogenization in 2 to 3 drops of 20% aqueous Tween 80 and then made up to volume with isotonic saline. […] Mice were weighed during the course of the experiments, and the percent change in body weight from onset to termination of therapy was used as an indication of drug toxicity. Determination of the sensitivity of neoplasms to these agents was based on the prolongation of survival time afforded by the drug treatments.
^a Administered once daily for six consecutive days, beginnign 24
hours after tumor transplanation, with 5 animals being used per group.
^b Average change in body weight from onset to termination of therapy
^c % T/C = average survival time of treated/control animals ×
100. Each value represents the average of 5 animals per group.

L1210 leukemia = test: Survival time of mice bearing the L1210 leukemia; assay type: in vivo, mouse (CDF-1 mice); conditions: for Max. % T/C L1210 Leukemia: Table V; for Av. Change wt. %: L1210 mice; for response vs control in vivo at 50 mg/kg / response vs control in vivo at 100 mg/kg / response vs control in vivo at 150 mg/kg: Mus musculus, read-out: % T/C; for activity against the L1210 leukemia (in words): mouse, in vivo
Source text: The ascites cell forms of the L1210 leukemia, Sarcoma 180 and P388 leukemia were propagated in CDF-1 mice. […] Mice were weighed during the course of the experiments, and the percentage change in body weight from the onset to termination of therapy was used as an indication of host toxicity.
Each value represents the average of 5 animals per group.

[1] = 50 mg/kg once daily for six days
[2] = 100 mg/kg once daily for six days
[3] = 150 mg/kg once daily for six days
[4] = 144 h, 50 mg/kg once daily for six days, L1210
[5] = 144 h, 100 mg/kg once daily for six days, L1210

Compound | Max. % T/C B16 Melanoma (B16 melanoma) [% T/C] | Max. % T/C L1210 Leukemia (L1210 leukemia) [% T/C] | other results
CN(NS(=O)(=O)c1ccc(Br)cc1)S(=O)(=O)c1ccccc1 [Compound 19] | 187 |  | 
COc1ccc(S(=O)(=O)N(C)NS(=O)(=O)c2ccccc2)cc1 [Compound 23] | 151 | 178 | 
CN(NS(=O)(=O)c1ccc(Br)cc1)S(=O)(=O)c1ccc(Br)cc1 [Compound 41, N,N'-bis(p-bromobenzenesulfonyl)-N-methylhydrazine] | 161 | 183 | 
CN(NS(=O)(=O)c1ccc(Br)cc1)S(=O)(=O)Cc1ccccc1 [Compound 53] | 163 |  | 
Cc1ccc(S(=O)(=O)NN(C)S(=O)(=O)c2ccc(I)cc2)cc1 [Compound 59] | 176 | 123 | 
CN(NS(=O)(=O)C=Cc1ccccc1)S(=O)(=O)c1ccc(Br)cc1 [Compound 43, N-(p-bromobenzenesulfonyl)-N-methyl-N'-(2-styrenesulfonyl)hydrazine] | 178 |  | 
COc1ccc(S(=O)(=O)NN(C)S(=O)(=O)c2ccc(Cl)cc2)cc1 [Compound 32, N-(p-chlorobenzenesulfonyl)-N'-(p-methoxybenzenesulfonyl)-N-methylhydrazine] | 153 | 130 | 
COc1ccc(S(=O)(=O)N(C)NS(=O)(=O)c2ccc3ccccc3c2)cc1 [Compound 27] | 163 |  | 
CN(NS(=O)(=O)c1ccc2ccccc2c1)S(=O)(=O)c1ccc2ccccc2c1 [Compound 11, Nmethyl-N,N'bis(2-naphthalenesulfonyl)hydrazine] |  |  | Average Survival Time of Treated Animals, days ± SE (L1210 leukemia; [1]): 11.4 ± 1.1 days; Av. Change wt. % (L1210 leukemia; [1]): +6.9%; Average Survival Time of Treated Animals, days ± SE (L1210 leukemia; [2]): 10.2 ± 0.4 days; Av. Change wt. % (L1210 leukemia; [2]): +3.0%; Average Survival Time of Treated Animals, days ± SE (L1210 leukemia; [3]): 14.0 ± 2.3 days; Av. Change wt. % (L1210 leukemia; [3]): -3.3%; response vs control in vivo at 50 mg/kg (L1210 leukemia; [4]): 127%; response vs control in vivo at 100 mg/kg (L1210 leukemia; [5]): 113%; response vs control in vivo at 150 mg/kg (L1210 leukemia; L1210, 144 h): 156%; Max. % T/C (B16 melanoma): 164 % T/C; Av. Change in wt., % (B16 melanoma): +4.6%
COc1ccc(S(=O)(=O)NN(C)S(=O)(=O)Cc2ccccc2)cc1 [Compound 51] | 182 |  | 
Cc1ccc(S(=O)(=O)NN(C)S(=O)(=O)Cc2ccccc2)cc1 [Compound 50] | 206 | 144 | 
CN(NS(=O)(=O)c1ccc(Cl)cc1)S(=O)(=O)c1ccc(Br)cc1 [Compound 40, N-(p-bromobenzenesulfonyl)-N'-(p-chlorobenzenesulfonyl)-N-methylhydrazine] | 145 |  | 
Cc1ccc(S(=O)(=O)N(C)NS(=O)(=O)c2ccc([N+](=O)[O-])cc2)cc1 [Compound 22] | 192 |  | 
CN(NS(=O)(=O)c1ccc(Cl)cc1)S(=O)(=O)c1ccccc1 [Compound 16] | 148 | 122 | 
CN(NS(C)(=O)=O)S(=O)(=O)c1ccc(I)cc1 [Compound 62] | 195 |  | 
CN(NS(=O)(=O)c1ccccc1)S(=O)(=O)c1ccc(Br)cc1 [Compound 37, N'-benzenesulfonyl-N-(p-bromobenzenesulfonyl)-N-methylhydrazine] | 160 |  | 
Cc1ccc(S(=O)(=O)N(C)NS(=O)(=O)Cc2ccccc2)cc1 [Compound 6, N'-benzylsulfonyl-N-methyl-N-(p-toluenesulfonyl)hydrazine] |  |  | Average Survival Time of Treated Animals, days ± SE (L1210 leukemia; [1]): 16.0 ± 3.4 days; Av. Change wt. % (L1210 leukemia; [1]): +10.8%; Average Survival Time of Treated Animals, days ± SE (L1210 leukemia; [2]): 12.6 ± 0.8 days; Av. Change wt. % (L1210 leukemia; [2]): +2.4%; Average Survival Time of Treated Animals, days ± SE (L1210 leukemia; [3]): 14.6 ± 1.9 days; Av. Change wt. % (L1210 leukemia; [3]): -4.3%; response vs control in vivo at 50 mg/kg (L1210 leukemia; [4]): 174%; response vs control in vivo at 100 mg/kg (L1210 leukemia; [5]): 137%; response vs control in vivo at 150 mg/kg (L1210 leukemia; 144 h, 150 mg/kg once daily for six days, L1210): 159%; activity against the L1210 leukemia (in words) (L1210 leukemia): comparable to that of compounds 1-3 and 5; also recorded: relatively high level of activity; increase in survival time of mice bearing the L1210 leukemia (L1210 leukemia; optimal daily dosage level): 74%; Max. % T/C (B16 melanoma): 172 % T/C; Av. Change in wt., % (B16 melanoma): -2.4%
Cc1ccc(S(=O)(=O)NN(C)S(=O)(=O)c2ccc3ccccc3c2)cc1 [Compound 46, N-(N'-naphthalenesulfonyl)-N-methyl-N'-(p-toluenesulronyl)hydrazine] |  | 120 | 
CN(NS(=O)(=O)c1ccc2ccccc2c1)S(=O)(=O)c1ccccc1 [Compound 18] | 181 |  | 
CCS(=O)(=O)NN(C)S(=O)(=O)c1ccc(Cl)cc1 [Compound 36] | 164 |  | 
CN(NS(=O)(=O)c1ccc(Cl)cc1)S(=O)(=O)Cc1ccccc1 [Compound 52] | 184 | 128 | 
CN(NS(=O)(=O)C=Cc1ccccc1)S(=O)(=O)C=Cc1ccccc1 [Compound 57] | 171 |  | 

Compound | Max. % T/C B16 Melanoma (B16 melanoma) [% T/C] | Max. % T/C L1210 Leukemia (L1210 leukemia) [% T/C] | other results
Cc1ccc(S(=O)(=O)N(C)NS(=O)(=O)c2ccc3ccccc3c2)cc1 [Compound 21, N'-(2-naphthalenesulfonyl)-N-methyl-N-(p-toluenesulfonyl)hydrazine] |  | 134 | 
COc1ccc(S(=O)(=O)N(C)NS(=O)(=O)Cc2ccccc2)cc1 [Compound 28] | 160 | 152 | 
COc1ccc(S(=O)(=O)N(C)NS(=O)(=O)c2ccc(Cl)cc2)cc1 [Compound 24, N'-(p-chlorobenzenesulfonyl)-N-(p-methoxybenzene-sulfonyl)-N-methylhydrazine] | 170 |  | 
CN(NS(=O)(=O)c1ccc2ccccc2c1)S(=O)(=O)c1ccc(Cl)cc1 [Compound 33, N-(p-chlorobenzenesulfonyl)-N-methyl-N'-(2-naphthalenesulfonyl)hydrazine] | 153 | 109 | 
CN(NS(=O)(=O)c1ccc2ccccc2c1)S(=O)(=O)c1ccc(Br)cc1 [Compound 42, N-(p-bromobenzenesulfonyl)-N-methyl-N-(2-naphthalenesulfonyl)hydrazine] | 146 |  | 
Cc1ccc(S(=O)(=O)NN(C)S(=O)(=O)c2ccc(Br)cc2)cc1 [Compound 38, N-(p-bromobenzenesulfonyl)-N-methyl-N'-(p-toluenesulfonyl)hydrazine] |  | 127 | 
CN(NS(C)(=O)=O)S(=O)(=O)Cc1ccccc1 [Compound 56] | 203 |  | 
CC(=O)Nc1ccc(S(=O)(=O)N(C)NS(=O)(=O)c2ccc(Br)cc2)cc1 [Compound 58] | 164 |  | 
Cc1ccc(S(=O)(=O)N(C)NS(=O)(=O)c2ccc(Br)cc2)cc1 [Compound 20, N'-(p-bromobenzenesulfonyl)-N-methyl-N-(p-toluenesulfonyl)hydrazine] | 161 | 169 | 
CN(NS(=O)(=O)c1ccccc1)S(=O)(=O)c1ccc2ccccc2c1 [Compound 45, N'-benzenesulfonyl-N-methyl-N-(2naphthalenesulfonyl)hydrazine] | 163 | 106 | 
CN(NS(=O)(=O)c1ccc2ccccc2c1)S(=O)(=O)Cc1ccccc1 [Compound 54] |  | 115 | 
COc1ccc(S(=O)(=O)N(C)NS(=O)(=O)c2ccc(Br)cc2)cc1 [Compound 25] | 205 | 134 | 
CN(NS(C)(=O)=O)S(=O)(=O)c1ccc(Cl)cc1 [Compound 35, N-(p-chlorobenzenesulfonyl)-N'-methanesulfonyl-N-methylhydrazine] | 194 | 167 | 
COc1ccc(S(=O)(=O)N(C)NS(C)(=O)=O)cc1 [Compound 29] | 204 | 274 | activity against the L1210 leukemia (in words) (L1210 leukemia): highest increases in survival time
CN(NS(=O)(=O)c1ccccc1)S(=O)(=O)c1ccc(Cl)cc1 [Compound 31, N'-benzenesulfonyl-N-(p-chlorobenzenesulfonyl)-N-methylhydrazine] | 146 | 111 | 
CN(NS(=O)(=O)C=Cc1ccccc1)S(=O)(=O)c1ccc(Cl)cc1 [Compound 34] | 143 |  | 
COc1ccc(S(=O)(=O)NN(C)S(=O)(=O)c2ccccc2)cc1 [Compound 15] | 191 | 136 | 
COc1ccc(S(=O)(=O)NN(C)S(=O)(=O)c2ccc(Br)cc2)cc1 [Compound 39, N-(p-bromobenzenesulfonyl)-N'-(p-methoxybenzene-sulfonyl)-N-methylhydrazine] | 167 | 165 | 
Cc1ccc(S(=O)(=O)NN(C)S(=O)(=O)c2ccccc2)cc1 [Compound 14] | 178 | 153 | 
CN(NS(=O)(=O)Cc1ccccc1)S(=O)(=O)Cc1ccccc1 [Compound 55, N,N'-bis(benzylsulfonyl)-N-methylhydrazine] | 152 |  | 
CN(NS(C)(=O)=O)S(=O)(=O)c1ccc(Br)cc1 [Compound 44] | 221 |  | 
CN(NS(=O)(=O)c1ccccc1)S(=O)(=O)Cc1ccccc1 [Compound 49, N'-benzenesulfonyl-N-benzylsulfonyl-N-methylhydrazine] | 208 | 185 | 

— patent publication US4892887A, “N,N'-bis(sulfonyl)hydrazines having antineoplastic activity” (Yale University, priority 1988, dated 1990)
